# pKi: −log10 of the molar value. Read-outs that look alike come from different tables or passages of the source.
# Columns and labels:
# [1] = biological target: T1, rat adrenergic α1B receptor (Rattus norvegicus, UniProt P15823); test: Radioligand binding, adrenergic α1B ([3H]Prazosin); settings: for inhibition at 0.03 µM: read-out: Percentage inhibition of ligand binding, Adrenergic α1B (0.03 μM), compound at 0.03 μM
# T1 construct: rat adrenergic α1B receptor obtained from Wistar Rat liver; from tissue; host or cells: Wistar rat liver
# T1 sequence (P15823 1-515): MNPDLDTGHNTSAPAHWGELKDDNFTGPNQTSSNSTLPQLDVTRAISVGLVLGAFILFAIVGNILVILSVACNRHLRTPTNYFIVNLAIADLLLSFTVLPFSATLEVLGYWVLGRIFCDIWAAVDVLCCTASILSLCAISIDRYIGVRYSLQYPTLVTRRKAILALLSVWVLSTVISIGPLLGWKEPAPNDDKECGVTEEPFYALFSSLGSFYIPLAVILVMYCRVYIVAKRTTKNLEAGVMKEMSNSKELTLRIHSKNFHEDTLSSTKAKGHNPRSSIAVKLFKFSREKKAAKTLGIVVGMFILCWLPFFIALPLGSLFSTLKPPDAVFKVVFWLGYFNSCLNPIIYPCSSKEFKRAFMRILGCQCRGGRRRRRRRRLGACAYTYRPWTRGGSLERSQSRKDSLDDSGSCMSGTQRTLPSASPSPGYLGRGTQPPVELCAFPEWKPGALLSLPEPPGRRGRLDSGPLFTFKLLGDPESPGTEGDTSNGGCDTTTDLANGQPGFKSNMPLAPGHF
# Procedure, shortened: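 Rat α1B receptor from Wistar rat liver was incubated with 0.25 nM [3H]prazosin for 60 min at 25 °C in 50 mM Tris-HCl, pH 7.4, 0.5 mM EDTA. Non-specific binding was defined with 10 μM phentolamine. Bound radioligand was measured by filtration and counting, reported as percent inhibition of specific binding.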
# [2] = biological target: T2, human recombinant adrenergic α2B receptor (Homo sapiens, UniProt P18089); test: Radioligand binding, adrenergic α2B ([3H]Rauwolscine); settings: for inhibition at 0.1 µM: read-out: Percentage inhibition of ligand binding, Adrenergic α2B (0.1 μM), compound at 0.1 μM
# T2 construct: expressed in transfected cells; host or cells: CHO-K1
# T2 sequence (P18089 1-450): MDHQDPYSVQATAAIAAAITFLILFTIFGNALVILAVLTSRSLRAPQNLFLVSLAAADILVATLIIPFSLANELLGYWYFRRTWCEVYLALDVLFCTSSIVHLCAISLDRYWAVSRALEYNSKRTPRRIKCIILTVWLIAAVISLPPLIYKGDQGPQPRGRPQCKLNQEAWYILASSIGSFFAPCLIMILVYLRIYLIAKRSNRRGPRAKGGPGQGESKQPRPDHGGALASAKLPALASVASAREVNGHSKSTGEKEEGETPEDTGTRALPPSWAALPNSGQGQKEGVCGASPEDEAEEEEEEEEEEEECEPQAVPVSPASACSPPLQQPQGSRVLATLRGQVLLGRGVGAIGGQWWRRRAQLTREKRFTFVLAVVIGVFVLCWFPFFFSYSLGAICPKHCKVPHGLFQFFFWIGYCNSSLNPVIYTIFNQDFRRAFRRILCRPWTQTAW
# Procedure, shortened: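 Readout: percent inhibition of specific [3H]Rauwolscine binding, measured by filtration and counting. Conditions: CHO-K1 cell-expressed receptor, 2.5 nM radioligand, 60 min, 25° C, Tris-HCl pH 7.4 buffer with MgCl2, EDTA, BSA. Non-specific binding: 10 μM Prazosin.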
# [3] = biological target: T3, human recombinant adrenergic α2A receptor (Homo sapiens, UniProt P08913); test: Radioligand binding, adrenergic α2A ([3H]MK-912); settings: for Percentage inhibition of ligand binding, Adrenergic α2A (0.1 μM) / Percentage inhibition of ligand binding, Adrenergic α2A: 0.1 µM
# T3 construct: expressed in transfected cells; host or cells: insect Sf9 cells
# T3 sequence (P08913 1-465): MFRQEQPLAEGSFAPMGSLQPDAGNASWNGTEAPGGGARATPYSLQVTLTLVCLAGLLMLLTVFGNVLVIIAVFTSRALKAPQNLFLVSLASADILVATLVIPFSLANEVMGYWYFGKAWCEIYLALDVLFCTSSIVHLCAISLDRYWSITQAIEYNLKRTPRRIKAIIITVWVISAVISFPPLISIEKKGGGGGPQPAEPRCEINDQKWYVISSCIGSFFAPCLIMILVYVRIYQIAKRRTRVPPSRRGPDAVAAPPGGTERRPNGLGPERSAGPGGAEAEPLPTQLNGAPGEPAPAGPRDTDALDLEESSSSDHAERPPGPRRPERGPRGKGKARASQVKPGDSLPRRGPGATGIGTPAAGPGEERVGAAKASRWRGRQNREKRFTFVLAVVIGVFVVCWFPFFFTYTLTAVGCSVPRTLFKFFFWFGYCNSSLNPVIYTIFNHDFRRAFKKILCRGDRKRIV
# Procedure, shortened: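 Sf9 membranes, 1 nM [3H]MK-912, 60 min, 25 °C, Tris-HCl pH 7.4/MgCl2/EDTA buffer. NSB: 10 μM WB-4101. Filtration, counting; % inhibition of specific binding.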
# [4] = compound at 0.1 μM, [3H]Prazosin, repeat datapoints each shown, 0.1 µM
# [5] = compound at 0.03 μM, [3H]Rauwolscine, repeat datapoints each shown, 0.03 µM
# [6] = compound at 0.1 μM, [3H]MK-912, repeat datapoints each shown
# [7] = 0.1 μM compound, read-out: Percentage inhibition of ligand binding, Adrenergic α2A
# [8] = compound at 0.1 μM, [3H]Prazosin, repeat assays, each datapoint shown, 0.1 µM
# [9] = compound at 0.03 μM, [3H]Rauwolscine, repeat assays, each datapoint shown, 0.03 µM
# [10] = compound at 0.1 μM, [3H]MK-912, repeat assays, each datapoint shown
# [11] = read-out: Percentage inhibition of ligand binding, Adrenergic α1B (0.1 μM), compound at 0.1 μM, [3H]Prazosin, repeat datapoints each shown
# [12] = read-out: Percentage inhibition of ligand binding, Adrenergic α2B (0.03 μM), compound at 0.03 μM, [3H]Rauwolscine, repeat datapoints each shown
# [13] = read-out: Percentage inhibition of ligand binding, Adrenergic α2A (0.1 μM), compound at 0.1 μM, [3H]MK-912, repeat datapoints each shown
# [14] = [3H]Prazosin, repeat datapoints each shown
# [15] = [3H]Rauwolscine, repeat datapoints each shown
SMILES,"Percentage inhibition of ligand binding, Adrenergic α1B (0.1 μM) [1, 4] [%]","Percentage inhibition of ligand binding, Adrenergic α2B (0.03 μM) [2, 5] [%]","inhibition at 0.1 µM [1, 11] [%]","inhibition at 0.03 µM [2, 12] [%]","inhibition at 0.1 µM [3, 13] [%]",also measured
"CC(=O)OC(C)(Cn1c2c(c3cc(C)ccc31)CN(C)CC2)c1cccnc1 (single isomer, unassigned) [II-15b, acetic acid 2-(2,8-dimethyl-1,2,3,4-tetrahydro-pyrido[4,3-b]indol-5-yl)-1-methyl-1-pyridin-3-yl-ethyl ester]",–,–,–,–,–,"Percentage inhibition of ligand binding, Adrenergic α1B ([1]; 0.1 μM compound, 0.1 µM): 5%; Percentage inhibition of ligand binding, Adrenergic α2B ([2]; 0.03 μM compound, 0.03 µM): 40%; Percentage inhibition of ligand binding, Adrenergic α2A ([3]; 0.1 μM compound): 18%"
OCCN1CCc2c(c3cc(Cl)ccc3n2CC(O)c2ccncc2)C1 (stereo not drawn) [II-93a],–,–,–,–,–,"Percentage inhibition of ligand binding, Adrenergic α1B ([1]; 0.1 μM compound): 6%; Percentage inhibition of ligand binding, Adrenergic α2B ([2]; 0.03 μM compound): 24%; inhibition at 0.1 µM [3, 7]: 7%"
"Cc1ccc2c(c1)c1c(n2CC(C)(O)c2ccccn2)CN(C)CC1 (single isomer, unassigned) [16a, 1-(2,6-dimethyl-1,2,3,4-tetrahydro-β-carbolin-9-yl)-2-pyridin-2-yl-propan-2-ol]",–,–,–,–,–,"Percentage inhibition of ligand binding, Adrenergic α1B [1, 8]: 47%; Percentage inhibition of ligand binding, Adrenergic α2B [2, 9]: 33%; Percentage inhibition of ligand binding, Adrenergic α2A [3, 10]: 9%"
"Cc1ccc2c(c1)c1c(n2CC(C)(O)c2ccc(O)nc2)CCN(C)C1 (stereo not drawn) [II-80, 5-[2-(2,8-dimethyl-1,2,3,4-tetrahydro-pyrido[4,3-b]indol-5-yl)-1-hydroxy-1-methyl-ethyl]-pyridin-2-ol]",–,–,–,–,–,"inhibition at 0.1 µM ([1]; 0.1 μM compound, read-out: Percentage inhibition of ligand binding, Adrenergic α1B): 4%; inhibition at 0.03 µM ([2]; 0.03 μM compound, read-out: Percentage inhibition of ligand binding, Adrenergic α2B): 9%; inhibition at 0.1 µM [3, 7]: 3%"
"CC(=O)c1ccc2c(c1)c1c(n2CC(O)c2ccncc2)CCN(C)C1 (single isomer, unassigned) [49b, 1-(2,3,4,5-tetrahydro-5-(2-hydroxy-2-(pyridin-4-yl)ethyl)-2-methyl-1H-pyrido[4,3-b]indol-8-yl)ethanone]",–,–,–,–,–,"Percentage inhibition of ligand binding, Adrenergic α1B [1, 8]: 5%; Percentage inhibition of ligand binding, Adrenergic α2B [2, 9]: 19%; Percentage inhibition of ligand binding, Adrenergic α2A [3, 10]: 6%"
"Cc1ccc2c(c1)c1c(n2CC(OC(=O)CCC(=O)O)c2ccncc2)CCN2CCCC12 (single isomer, unassigned) [V-18a, 4-(2-(10-methyl-2,3,5,6-tetrahydro-1H-indolizino[7,8-b]indol-7(11cH)-yl)-1-(pyridin-4-yl)ethoxy)-4-oxobutanoic acid]",–,57,78,–,–,"Percentage inhibition of ligand binding, Adrenergic α2A (0.1 μM) [3, 6]: 13%"
"Cc1ccc2c(c1)c1c(n2/C=C/c2ccncc2)CCNC1 [compound 79, 8-methyl-5-(2-(pyridin-4-yl)vinyl)-2,3,4,5-tetrahydro-1H-pyrido[4,3-b]indole]",–,–,–,–,–,"inhibition at 0.1 µM ([1]; compound at 0.1 μM, [3H]Prazosin, repeat assays, each datapoint shown, read-out: Percentage inhibition of ligand binding, Adrenergic α1B): 34%; inhibition at 0.03 µM ([2]; compound at 0.03 μM, [3H]Rauwolscine, repeat assays, each datapoint shown, read-out: Percentage inhibition of ligand binding, Adrenergic α2B): 77%; inhibition at 0.1 µM ([3]; compound at 0.1 μM, [3H]MK-912, repeat assays, each datapoint shown, read-out: Percentage inhibition of ligand binding, Adrenergic α2A): 19%"
"Cc1ccc2c(c1)c1c(n2CC(N)c2ccncc2)CCN(C)CC1 (single isomer, unassigned) [154b, 2-(3,9-dimethyl-2,3,4,5-tetrahydroazepino[4,5-b]indol-6(1H)-yl)-1-(pyridin-4-yl)ethanamine]",–,83,95,80,5,"inhibition at 0.03 µM [1, 14]: 80%; pKi ([2]; Ki α2B): 8.48; inhibition at 0.1 µM [2, 15]: 95%"
"Cc1cc2c3c(n(CC(C)(O)c4cccnc4)c2cc1Cl)CCN(C)C3 (single isomer, unassigned) [II-123b, 1-(7-chloro-2,8-dimethyl-3,4-dihydro-1H-pyrido[4,3-b]indol-5(2H)-yl)-2-(pyridin-3-yl)propan-2-ol]",61,93,–,–,–,"Percentage inhibition of ligand binding, Adrenergic α2A (0.1 μM) [3, 6]: 75%"
C=C(Cn1c2c(c3cc(C)ccc31)CN(C)CC2)c1cccnc1 [compound 132],–,–,28,91,19,–
"Cc1cnc2c(c1)c1c(n2CC(O)c2ccc(F)cc2)CCN(C)C1 (single isomer, unassigned) [136a]",54,34,–,–,16,–
"Cc1ccc2c(c1)c1c(n2CC(C)(O)c2cccnc2)CCN(C)CC1 (single isomer, unassigned) [II-135b, 1-(3,9-dimethyl-2,3,4,5-tetrahydroazepino[4,5-b]indol-6(1H)-yl)-2-(pyridin-3-yl)propan-2-ol]",70,105,60,103,40,"inhibition at 0.03 µM [1, 14]: 26%; pKi ([2]; read-out: Ki α2B): 9.28; inhibition at 0.1 µM [2, 15]: 105%"

# The next lines start with results.
"Percentage inhibition of ligand binding, Adrenergic α1B (0.1 μM) [1, 4] [%]","Percentage inhibition of ligand binding, Adrenergic α2B (0.03 μM) [2, 5] [%]","inhibition at 0.1 µM [1, 11] [%]","inhibition at 0.03 µM [2, 12] [%]","inhibition at 0.1 µM [3, 13] [%]",SMILES,also measured
54,65,–,–,–,"Cc1ccc2c(c1)c1c(n2CC(O)c2ccc(F)cc2F)CCN(C)CC1 (single isomer, unassigned) [172a]","Percentage inhibition of ligand binding, Adrenergic α2A (0.1 μM) [3, 6]: 18%"
23,52,–,–,–,"Cc1cnc2c(c1)c1c(n2CC(C)(O)c2ccc(C)nc2)CCN2CCCC12 (single isomer, unassigned) [148a]","Percentage inhibition of ligand binding, Adrenergic α2A (0.1 μM) [3, 6]: −5%"
–,–,24,30,10,"Cc1ccc2c(c1)c1c(n2CC(O)c2cnn(C)c2)CCN(C)C1 (stereo not drawn) [131a, 2-(1,2,3,4-tetrahydro-2,8-dimethylpyrido[4,3-b]indol-5-yl)-1-(1-methyl-1H-pyrazol-4-yl)ethanol]",–
–,–,13,1,4,Cc1ccc2c(c1)c1c(n2C(C)C(O)c2ccncc2)CCN(C)C1 (stereo not drawn) [127b],–

# Reference: patent US8791132B2, “Compounds and methods for treatment of hypertension” (Medivation Technologies, Inc., priority 2011, dated 2014)
